# From US12514943B2 (priority 2020, dated 2026)
# System: Aspergillus brasiliensis (ATCC 16404)
# Test: Evaluation test for microbicidal effect, suspension test EN 13624:2013 (clean conditions)
# Format: cell-based
# Details: equal molar amount instead of glycine in the formula of Example 1-1
row,SMILES,enhancement of the microbicidal activity of the acidic oxidant of peracetic acid and hydrogen peroxide (in words)
1,CC(=O)O [acetic acid],could not enhance the microbicidal activity
2,O=P([O-])([O-])O.[K+].[K+] [dipotassium hydrogen phosphate],could not enhance the microbicidal activity
3,O=P([O-])([O-])[O-].[Na+].[Na+].[Na+] [trisodium phosphate],could not enhance the microbicidal activity
